How the values were obtained:
Type in all cases: cell-based, human
bone marrow organoids = experiment: TGFβ-induced fibrosis of bone marrow organoids (immunofluorescence, qRT PCR); details: for TGFβ-induced collagen deposition / TGFβ-induced αSMA expression: bone marrow organoids stimulated with TGFβ, N=4 and 3 respectively, Kruskal-Wallis with multiple comparisons
Excerpt: FIG. 7: Treatment of organoids with TGFβ induced fibrosis of the organoids, modelling bone marrow fibrosis seen in patients. […] Increase of signal in these images is indicative of treatment inducing classic markers of fibrosis. […] Finally, we confirmed the utility of this model to screen for potential inhibitors of bone marrow fibrosis. […] (N=4 and 3 respectively, significance testing with Kruskal-Wallis with multiple comparisons).
To model myelofibrosis (MF), we treated bone marrow organoids with Transforming Growth Factor β (TGFβ, Peprotech) at various concentrations for 72 hours. Treated organoids were maintained in this media before collection via pasteurette and fixation for immunofluorescence (whole organoids or embedded sections), or centrifugation for RNA extraction and subsequent quantitative Real Time Polymerase Chain Reaction (qRT PCR assessment of changes in gene expression). RNA extraction was performed using the Qiagen RNAEasy micro kit to the manufacturer's instructions.
qRT-PCR was performed on an Applied Biosystems 7500 Fast Real Time PCR System. Primers were obtained from Integrated DNA Technologies (IDT) as pre-validated PrimeTime qPCR primers. Reactions were prepared from lug of isolated RNA converted to cDNA with the High Capacity cDNA Reverse Transcription Kit (Applied Biosystems) under manufacturer recommended thermal cycling conditions. Synthesised cDNA was diluted 5-fold and stored at −20° C. until required.
A master mix was prepared for each qPCR reaction which was made up of 10 μl TaqMan® Universal Primer MasterMix (thermos), 1 μl of forward and reverse primers, and 2 μl of cDNA at a final concentration of 5 ng/mL. Calculations for fold changes in expression were performed using the ΔΔCT method, with human GAPDH used as a housekeeping gene, and undifferentiated iPSC used as controls for expression levels.
Immunofluorescence was performed using a Zeiss LSM880 confocal microscope (25×0.8 LD LCI plan apo 0.8 dual immersion objective). Samples were prepared first by fixation in 10% formalin, before 3×5 min successive washes with PBS. Samples were then blocked overnight in a detergent blocking solution comprised of 2% goat serum (Thermo), 1% Bovine Serum Albumin (BSA) in 50 mL of PBS. 250 μl of Triton X100 and Tween-20 (Sigma) were added, as well as 500 μl sodium deoxycholate (Sigma) to permeabilise samples and encourage antibody preparation. Primary antibody incubations were performed overnight at 4° C., before 4×5-minute successive washes in PBS. Samples were then incubated overnight once more at 4° C. in secondary antibody mixes: DAPI for nuclear labelling, Alexa-488, Alxea-568, and Alexa-647 (Thermo) depending on the species mix of antibodies present.

MF-patient organoids = experiment: Bone marrow organoids engrafted with CD34+ cells from patients with myelofibrosis, screen of potential therapies (immunofluorescence of paraffin embedded sections); details: organoids seeded with MF patient cells for 14 days, treatment at day 7 post engraftment, 0.1 and 1 uM, vs DMSO treated
Description: FIG. 12: Organoids engrafted with CD34^+ cells from patients with myelofibrosis can be used to screen potential therapies in a patient specific approach. Bone marrow organoids were seeded with cells from patients with myelofibrosis for 14 days in total, with pharmacological interventions staged at day 7 post engraftment. […] Samples were also treated with the inhibitor SB431542, the BET bromodomain inhibitor JQ1, and the current clinical treatment for myelofibrosis ruxolitinib (at 0.1 and 1 uM respectively). […] (B) Representative immunofluorescence imaging of paraffin embedded sections.
Cells were isolated from cryopreserved peripheral blood or bone marrow mononuclear cells and stained with CellVue Claret Far Red Fluorescent Cell Linker Mini Kit for General Membrane Labeling (Sigma Aldrich, Cat #MINCLARET-1KT) following the instructions provided by the manufacturer. Organoids were seeded with 5000 cells per wells and cultured for 8-14 days in StemPro. On collection day, organoids were fixed for imaging or digested for assessment by flow cytometry or RNA extraction and qRT PCR.
Sections were blocked using 2% Goat Serum (Thermo Fisher Scientific, Cat #31872) 1% Bovine Serum Albumin (BSA) (Sigma, Cat #A9418) prior to primary antibody labelling with antibody diluted in 1% BSA, sequential PBS washes, and finally secondary labelling with AlexaFluor conjugates. […]

organoid endothelium = experiment: Addition of VEGFC to the organoid growth factor cocktail, specialisation of organoid endothelium
Excerpt: FIG. 4: Addition of VEGFC induces specialisation of organoid endothelium to resemble bone marrow sinusoidal endothelium. The protocol thus far generated an organoid producing the key lineages of the central human bone marrow. However, bone marrow sinusoidal endothelium, is a highly specialised for regulating haematopoeitic cell behaviours.
FIG. 5: VEGFC induces development of CD34+ sinusoidal vascular network in organoids. […] Immunofluorescence images show significant staining of the vessels in the VEGFA+C treated sample when compared to VEGFA. (B) Close association of CD41+ megakaryocytes with vessels in the organoids. […] (C) CD41+ megakaryocytes are shown forming pro-platelet extensions in sections of BM organoids.
Once fully polymerised, 3D cultures were supplemented in Phase III sprouting medium which was comprised of APELII medium supplemented with 5% Foetal Bovine Serum (FBS), 5 U/mL Heparin Sulfate, 50 ng VEGFA, 10 ng each Interleukin 3 (IL3) and Interleukin 6 (IL6), as well as 25 ng each of SCF, Flt3, Thrombopoietin (TPO), Erythropoietin (EPO), Granulocyte Colony Stimulating Factor (G-CSF) (Stem Cell Technologies), FGF2, and BMP4. Cells were maintained in this media formulation until d12, with media changes every 72 hours. From d5 onwards, media changes are performed as 60:40 splits fresh: conditioned medium. […]

In the case of TGFβ, the “expression of α-smooth muscle actin (α-SMA) and collagen I (COL1A1), staining” value (bone marrow organoids; 72-hours of stimulation, compared to an untreated control) is reported as “increase in the expression” and the “canonical fibrosis markers by qRT PCR” value (bone marrow organoids; various concentrations of TGFβ for 72 hours) is reported as “dose dependent increase”.

In the case of NC(=O)c1ccc(-c2nc(-c3ccc4c(c3)OCO4)c(-c3ccccn3)[nH]2)cc1 [SB431542], the TGFβ-induced collagen deposition (bone marrow organoids) is reported as “significantly reduced” and the “TGFβ-induced αSMA expression” value (bone marrow organoids) is reported as “significantly reduced”.

In the case of Cc1sc2c(c1C)C(c1ccc(Cl)cc1)=N[C@@H](CC(=O)OC(C)(C)C)c1nnc(C)n1-2 [JQ1], the TGFβ-induced collagen deposition (bone marrow organoids) is reported as “significantly reduced”, the “TGFβ-induced αSMA expression” value (bone marrow organoids) is reported as “significantly reduced” and the “COL1A1 level, immunofluorescence” value (MF-patient organoids) is reported as “significant reductions”. The “αSMA level, immunofluorescence” value (MF-patient organoids) was “significantly reduced”.

B1: VEGFC: Vascular Endothelial Growth Factor C (Stem Cell Technologies), growth factor supplemented into medium (protein, UniProt P49767 112-227, looked up)
Vascular endothelial growth …: AHYNTEILKSIDNEWRKTQCMPREVCIDVGKEFGVATNTFFKPPCVSVYRCGGCCNSEGLQCMNTSTSYLSKTLFEITVPLSQGPKPVTISFANHTSCRCMSKLDVYRQVHSIIRR
With B1 the “CD34 expression of organoid vessels, immunofluorescence” value (organoid endothelium; VEGFA+C treated compared to VEGFA) was “induces vessels in the organoid that maintain the expression of CD34” and the “expression of adhesion molecules and hematopoietic regulatory factors (VEGFR3, VCAM1, VLA4, FGF4, CXCR4) in endothelial cells” value (organoid endothelium; VEGFC added to VEGFA, compared to VEGFA or VEGFC alone) was “improved the expression”.

Reference: patent US20250145961A1, “GENERATING BONE MARROW ORGANOIDS” (The University of Birmingham, priority 2022, published 2025)
